Measurements taken from ChEMBL document CHEMBL1134628, “Are free energy calculations useful in practice? A comparison with rapid scoring functions for the p38 MAP kinase protein system” (J Med Chem, 2001).

Target: MAP kinase p38 (Homo sapiens, UniProt O15264+Q15759+Q16539+P53778)
Assay: Binding affinity against p38 MAP kinase system
Type: protein assay

Row | pIC50 | SMILES
1 | 5.854 | Cc1ccc(Sc2ccc3c(-c4c(Cl)cccc4Cl)c(=O)ncn3n2)cc1
2 | 6.347 | O=c1ncn2nc(Sc3cccc(F)c3)ccc2c1-c1c(Cl)cccc1Cl
3 | 6.553 | O=c1ncn2nc(Sc3cccc(Cl)c3)ccc2c1-c1c(Cl)cccc1Cl
4 | 6.658 | Nc1cc(F)ccc1Sc1ccc2c(-c3c(Cl)cccc3Cl)c(=O)ncn2n1
5 | 6.301 | O=c1ncn2nc(Sc3ccc(F)c(Cl)c3)ccc2c1-c1c(Cl)cccc1Cl
6 | 6.699 | Cc1ccccc1Sc1ccc2c(-c3c(Cl)cccc3Cl)c(=O)ncn2n1
7 | 5.721 | Cc1ccc(Sc2ccc3c(-c4c(Cl)cccc4Cl)c(=O)ncn3n2)cc1C
8 | 7 | O=c1ncn2nc(Sc3ccc(F)cc3)ccc2c1-c1c(Cl)cccc1Cl
9 | 6.602 | O=c1ncn2nc(Sc3ccccc3Br)ccc2c1-c1c(Cl)cccc1Cl
10 | 6.097 | O=c1ncn2nc(Sc3ccc(Cl)c(Cl)c3)ccc2c1-c1c(Cl)cccc1Cl
11 | 6.577 | Cc1ccc(Sc2ccc3c(-c4c(Cl)cccc4Cl)c(=O)ncn3n2)c(C)c1
12 | 5.854 | Cc1cccc(Sc2ccc3c(-c4c(Cl)cccc4Cl)c(=O)ncn3n2)c1
13 | 6.444 | O=c1ncn2nc(Sc3ccccc3O)ccc2c1-c1c(Cl)cccc1Cl
14 | 6.745 | Cc1cc(Cl)ccc1Sc1ccc2c(-c3c(Cl)cccc3Cl)c(=O)ncn2n1
15 | 7.444 | O=c1ncn2nc(Sc3ccc(F)cc3Cl)ccc2c1-c1c(Cl)cccc1Cl
16 | 6.602 | O=c1ncn2nc(Sc3ccccc3)ccc2c1-c1c(Cl)cccc1Cl
